# From patent publication US10081628B2, “Apoptosis-inducing agents for the treatment of cancer and immune and autoimmune diseases” (AbbVie Inc., priority 2013, dated 2018)
# Like-named read-outs stand apart in the source and are kept apart here.
# Experiments:
# GST-Bcl-2 = GST-Bcl-2 (Homo sapiens, UniProt P10415); experiment: TR-FRET Bcl-2 binding assay (F-Bak peptide probe); settings: GST-Bcl-2 1 nM, F-Bak peptide probe 100 nM, Tb-anti-GST 1 nM; Wang's equation; '<' = below limit of detection
# Outline: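 Competitive TR-FRET displacement of F-Bak peptide probe from GST-Bcl-2 detected with Tb-anti-GST antibody; compounds serially diluted in DMSO from 50 μM (2× starting concentration). Mixtures incubated 3 h at room temperature, read at 340 nm excitation with 520 and 495 nm emission. Ki derived by Wang's equation.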
# RS4;11 cells = experiment: RS4;11 cell viability assay (CellTiter Glo); format: cell-based; settings: 10% human serum, 48 hours
# Outline: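 Cells seeded at 50,000 per well and exposed to compounds for 48 h at 37 C, 5% CO2 in the presence of 10% human serum. Viability read by CellTiter Glo; EC50 derived from percentage of viable cells versus untreated controls.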
# lymphocytes = experiment: Lymphocyte reduction in C57BL/6 mice; format: in vivo; settings: Mus musculus, ip
# Experimental: An experiment was performed to evaluate the effect of Bcl-2 selective/Bcl-xL sparing compounds on immune cells and platelets, as evaluated in C57Bl/6 mice. Mice were treated four days with compounds (doses of 30 mg/kg, administered by intraperitoneal injection every day) and cell numbers were measured with a Cell Dyn hematology analyzer 24 hours after the first and last doses. Exposure of the compound (area under the curve) was calculated by using time points of 1, 6, 10 and 24 hours after the last dose.
# [1] = 30 mg/kg intraperitoneal every day for four days, 24 hours after the last dose, read-out: Lymphocyte reduction % inh. day 4
# [2] = 30 mg/kg intraperitoneal every day, 24 hours after the first dose, read-out: Lymphocyte reduction % inh. day 1
# Chain of GST-Bcl-2 (P10415 whole entry): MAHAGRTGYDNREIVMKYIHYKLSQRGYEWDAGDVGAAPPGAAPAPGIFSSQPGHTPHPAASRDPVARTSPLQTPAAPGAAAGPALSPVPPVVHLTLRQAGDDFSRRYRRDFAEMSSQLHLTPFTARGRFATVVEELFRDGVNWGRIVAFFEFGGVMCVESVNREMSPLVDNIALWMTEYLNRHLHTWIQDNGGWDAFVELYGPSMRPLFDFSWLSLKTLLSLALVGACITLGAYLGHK
Compound,Ki (GST-Bcl-2) [nM],EC50 (RS4;11 cells) [nM],inhibition at 30 mg/kg (lymphocytes; [1]) [%],inhibition at 30 mg/kg (lymphocytes; [2]) [%]
"CC1(C)CCC(CN2CCN(c3ccc(C(=O)NS(=O)(=O)c4ccc(NC[C@H]5CCCOCC5)c([N+](=O)[O-])c4)c(Oc4cnc5[nH]ccc5c4)c3)CC2)=C(c2ccc(Cl)cc2)C1 [Example 20, 4-(4-{[2-(4-chlorophenyl)-4,4-dimethylcyclohex-1-en-1-yl]methyl}piperazin-1-yl)-N-[(3-nitro-4-{[(4S)-oxepan-4-ylmethyl]amino}phenyl)sulfonyl]-2-(1H-pyrrolo[2,3-b]pyridin-5-yloxy)benzamide]",< 0.1,19,57,20
"CC1(C)CCC(CN2CCN(c3ccc(C(=O)NS(=O)(=O)c4ccc(NCC5(C)CCOCC5)c([N+](=O)[O-])c4)c(Oc4cnc5[nH]ccc5c4)c3)CC2)=C(c2ccc(Cl)cc2)C1 [Example 21, 4-(4-{[2-(4-chlorophenyl)-4,4-dimethylcyclohex-1-en-1-yl]methyl}piperazin-1-yl)-N-[(4-{[(4-methyltetrahydro-2H-pyran-4-yl)methyl]amino}-3-nitrophenyl)sulfonyl]-2-(1H-pyrrolo[2,3-b]pyridin-5-yloxy)benzamide]",< 0.1,19,61,61
"CC1(C)CCC(CN2CCN(c3ccc(C(=O)NS(=O)(=O)c4ccc(NCC5CCSCC5)c([N+](=O)[O-])c4)c(Oc4cnc5[nH]ccc5c4)c3)CC2)=C(c2ccc(Cl)cc2)C1 [Example 22, 4-(4-{[2-(4-chlorophenyl)-4,4-dimethylcyclohex-1-en-1-yl]methyl}piperazin-1-yl)-N-({3-nitro-4-[(tetrahydro-2H-thiopyran-4-ylmethyl)amino]phenyl}sulfonyl)-2-(1H-pyrrolo[2,3-b]pyridin-5-yloxy)benzamide]",< 0.1,28,44,40
"CC1(C)CCC(CN2CCN(c3ccc(C(=O)NS(=O)(=O)c4ccc(NCC5COC5)c([N+](=O)[O-])c4)c(Oc4cnc5[nH]ccc5c4)c3)CC2)=C(c2ccc(Cl)cc2)C1 [Example 23, 4-(4-{[2-(4-chlorophenyl)-4,4-dimethylcyclohex-1-en-1-yl]methyl}piperazin-1-yl)-N-({3-nitro-4-[(oxetan-3-ylmethyl)amino]phenyl}sulfonyl)-2-(1H-pyrrolo[2,3-b]pyridin-5-yloxy)benzamide]",< 0.1,23,15,37
"C[C@@H]1CO[C@H](CNc2ccc(S(=O)(=O)NC(=O)c3ccc(N4CCN(CC5=C(c6ccc(Cl)cc6)CC(C)(C)CC5)CC4)cc3Oc3cnc4[nH]ccc4c3)cc2[N+](=O)[O-])CO1 [Example 24, 4-(4-{[2-(4-chlorophenyl)-4,4-dimethylcyclohex-1-en-1-yl]methyl}piperazin-1-yl)-N-{[4-({[(2R,5R)-5-methyl-1,4-dioxan-2-yl]methyl}amino)-3-nitrophenyl]sulfonyl}-2-(1H-pyrrolo[2,3-b]pyridin-5-yloxy)benzamide]",< 0.1,14,58,48
"CC1(C)CCC(CN2CCN(c3ccc(C(=O)NS(=O)(=O)c4ccc(NCC5(O)COCCOC5)c([N+](=O)[O-])c4)c(Oc4cnc5[nH]ccc5c4)c3)CC2)=C(c2ccc(Cl)cc2)C1 [Example 25, 4-(4-{[2-(4-chlorophenyl)-4,4-dimethylcyclohex-1-en-1-yl]methyl}piperazin-1-yl)-N-[(4-{[(6-hydroxy-1,4-dioxepan-6-yl)methyl]amino}-3-nitrophenyl)sulfonyl]-2-(1H-pyrrolo[2,3-b]pyridin-5-yloxy)benzamide]",< 0.1,36,15,29
"CC1(C)CCC(CN2CCN(c3ccc(C(=O)NS(=O)(=O)c4ccc(NCC5(O)CCC(F)(F)CC5)c([N+](=O)[O-])c4)c(Oc4cnc5[nH]ccc5c4)c3)CC2)=C(c2ccc(Cl)cc2)C1 [Example 26, 4-(4-{[2-(4-chlorophenyl)-4,4-dimethylcyclohex-1-en-1-yl]methyl}piperazin-1-yl)-N-[(4-{[(4,4-difluoro-1-hydroxycyclohexyl)methyl]amino}-3-nitrophenyl)sulfonyl]-2-(1H-pyrrolo[2,3-b]pyridin-5-yloxy)benzamide]",< 0.1,44,23,38
"COC1(CNc2ccc(S(=O)(=O)NC(=O)c3ccc(N4CCN(CC5=C(c6ccc(Cl)cc6)CC(C)(C)CC5)CC4)cc3Oc3cnc4[nH]ccc4c3)cc2[N+](=O)[O-])CCOCC1 [Example 27, 4-(4-{[2-(4-chlorophenyl)-4,4-dimethylcyclohex-1-en-1-yl]methyl}piperazin-1-yl)-N-[(4-{[(4-methoxytetrahydro-2H-pyran-4-yl)methyl]amino}-3-nitrophenyl)sulfonyl]-2-(1H-pyrrolo[2,3-b]pyridin-5-yloxy)benzamide]",< 0.1,97,21,23
"C[C@@H]1C[C@H](CNc2ccc(S(=O)(=O)NC(=O)c3ccc(N4CCN(CC5=C(c6ccc(Cl)cc6)CC(C)(C)CC5)CC4)cc3Oc3cnc4[nH]ccc4c3)cc2[N+](=O)[O-])C[C@H](C)O1 [Example 31, 4-(4-{[2-(4-chlorophenyl)-4,4-dimethylcyclohex-1-en-1-yl]methyl}piperazin-1-yl)-N-{[4-({[(2R,4R,6S)-2,6-dimethyltetrahydro-2H-pyran-4-yl]methyl}amino)-3-nitrophenyl]sulfonyl}-2-(1H-pyrrolo[2,3-b]pyridin-5-yloxy)benzamide]",< 0.1,16,55,53
"CC1(C)CCC(CN2CCN(c3ccc(C(=O)NS(=O)(=O)c4ccc(NC[C@@H]5CCOC(C)(C)C5)c([N+](=O)[O-])c4)c(Oc4cnc5[nH]ccc5c4)c3)CC2)=C(c2ccc(Cl)cc2)C1 [Example 34, 4-(4-{[2-(4-chlorophenyl)-4,4-dimethylcyclohex-1-en-1-yl]methyl}piperazin-1-yl)-N-{[4-({[(4R)-2,2-dimethyltetrahydro-2H-pyran-4-yl]methyl}amino)-3-nitrophenyl]sulfonyl}-2-(1H-pyrrolo[2,3-b]pyridin-5-yloxy)benzamide]",< 0.1,13,61,< 15
"C[C@@H]1COC[C@H](CNc2ccc(S(=O)(=O)NC(=O)c3ccc(N4CCN(CC5=C(c6ccc(Cl)cc6)CC(C)(C)CC5)CC4)cc3Oc3cnc4[nH]ccc4c3)cc2[N+](=O)[O-])O1 [Example 35, 4-(4-{[2-(4-chlorophenyl)-4,4-dimethylcyclohex-1-en-1-yl]methyl}piperazin-1-yl)-N-{[4-({[(2S,6R)-6-methyl-1,4-dioxan-2-yl]methyl}amino)-3-nitrophenyl]sulfonyl}-2-(1H-pyrrolo[2,3-b]pyridin-5-yloxy)benzamide]",< 0.1,12,49,54
"CC1(C)CCC(CN2CCN(c3ccc(C(=O)NS(=O)(=O)c4ccc(NC[C@@H]5CCOC5)c([N+](=O)[O-])c4)c(Oc4cnc5[nH]ccc5c4)c3)CC2)=C(c2ccc(Cl)cc2)C1 [Example 36, 4-(4-{[2-(4-chlorophenyl)-4,4-dimethylcyclohex-1-en-1-yl]methyl}piperazin-1-yl)-N-[(3-nitro-4-{[(3 S)-tetrahydrofuran-3-ylmethyl]amino}phenyl)sulfonyl]-2-(1H-pyrrolo[2,3-b]pyridin-5-yloxy)benzamide]",< 0.1,32,42,47
"CC1(C)CCC(CN2CCN(c3ccc(C(=O)NS(=O)(=O)c4ccc(NC[C@H]5COCC(C)(C)O5)c([N+](=O)[O-])c4)c(Oc4cnc5[nH]ccc5c4)c3)CC2)=C(c2ccc(Cl)cc2)C1 [Example 37, 4-(4-{[2-(4-chlorophenyl)-4,4-dimethylcyclohex-1-en-1-yl]methyl}piperazin-1-yl)-N-{[4-({[(2S)-6,6-dimethyl-1,4-dioxan-2-yl]methyl}amino)-3-nitrophenyl]sulfonyl}-2-(1H-pyrrolo[2,3-b]pyridin-5-yloxy)benzamide]",< 0.1,250,22,28
"C[C@@H]1CO[C@@H](CNc2ccc(S(=O)(=O)NC(=O)c3ccc(N4CCN(CC5=C(c6ccc(Cl)cc6)CC(C)(C)CC5)CC4)cc3Oc3cnc4[nH]ccc4c3)cc2[N+](=O)[O-])CO1 [Example 44, 4-(4-{[2-(4-chlorophenyl)-4,4-dimethylcyclohex-1-en-1-yl]methyl}piperazin-1-yl)-N-{[4-({[(2S,5R)-5-methyl-1,4-dioxan-2-yl]methyl}amino)-3-nitrophenyl]sulfonyl}-2-(1H-pyrrolo[2,3-b]pyridin-5-yloxy)benzamide]",< 0.1,4.7,60,66
